Data: BindingDB's records for doi:10.1016/j.bmcl.2009.01.090 (Gsk, 2009)

target: T1, Gag-Pol polyprotein [1148-1435] (Human immunodeficiency virus 1, UniProt P04585); assay: HIV Integrase Strand Transfer Scintillation Proximity Assay (SPA); details: pH 7.2; 37 °C
T1 construct: 1148-1435
Experimental: Purified recombinant integrase was first combined in a complex with biotinylated donor DNA- streptavidin-coated SPA beads. The complex was preincubated with the test compound, and strand transfer was initiated with a radiolabeled target DNA substrate. After incubation, the incorporated radioactivity was read in a Wallac MicroBeta scintillation plate reader using a counting protocol that corrected for optical cross talk between wells.

First: O=S1(=O)CCCCN1c1nc(-c2noc(Cc3ccc(F)cc3)n2)c(O)c2ncccc12 [2-(7-{5-[(4-fluorophenyl)methyl]-1,2,4-oxadiazol-3-yl}-8-hydroxy-1,6-naphthyridin-5-yl)-1,2-thiazinane-1,1-dione]
Second: O=C(NCc1ccc(F)cc1)c1nc(N2CCCCS2(=O)=O)c2cccnc2c1O [5-(1,1-dioxo-1,2-thiazinan-2-yl)-N-[(4-fluorophenyl)methyl]-8-hydroxy-1,6-naphthyridine-7-carboxamide]
The IC50 of the first is higher: > 100 µM for the first, 0.013 µM for the second. The second is the more potent here.

Oc1c(-c2noc(-c3ccccc3)n2)ncc2cccnc12 [7-(5-phenyl-1,2,4-oxadiazol-3-yl)-1,6-naphthyridin-8-ol] and Cn1nc(Cc2ccc(F)cc2)nc1-c1ncc2cccnc2c1O [7-{3-[(4-fluorophenyl)methyl]-1-methyl-1H-1,2,4-triazol-5-yl}-1,6-naphthyridin-8-ol] cannot be ordered by IC50: > 100 µM for the first, > 500 µM for the second.
